“And” between values parts separate entries of the source, which are not always exact repeats. Equal values may be shown once.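 In this assay, cells in 96-well plates receive the compound at five concentrations for 48 hours. Endpoints are linearly interpolated between the surrounding concentrations. GI50 is the concentration that inhibits growth by half. TGI is the concentration that stops growth completely.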
Key:
Assay in all cases: inhibition of tumour cell growth, NCI panel, 48 h
UO-31 renal = system: UO-31 renal
COLO 205 colon = system: COLO 205 colon
UACC-62 melanoma = system: UACC-62 melanoma
ACHN renal = system: ACHN renal
A549 NSCLC = system: A549 NSCLC
MDA-MB-435 = system: MDA-MB-435
SK-MEL-28 melanoma = system: SK-MEL-28 melanoma
OVCAR-4 ovarian = system: OVCAR-4 ovarian
RXF 393 renal = system: RXF 393 renal
SK-OV-3 ovarian = system: SK-OV-3 ovarian

SMILES | TGI (UO-31 renal) [µM] | TGI (COLO 205 colon) [µM] | TGI (UACC-62 melanoma) | TGI (ACHN renal) [µM] | TGI (A549 NSCLC) [µM] | TGI (MDA-MB-435) [µM] | TGI (SK-MEL-28 melanoma) | TGI (OVCAR-4 ovarian) [µM] | TGI (RXF 393 renal) [µM] | TGI (SK-OV-3 ovarian) [µM] | GI50 (UACC-62 melanoma) | GI50 (MDA-MB-435) | GI50 (SK-MEL-28 melanoma) | GI50 (UO-31 renal) [µM] | GI50 (COLO 205 colon) [µM] | GI50 (ACHN renal) [µM] | GI50 (A549 NSCLC) [µM] | GI50 (OVCAR-4 ovarian) [µM] | GI50 (RXF 393 renal) [µM]
NC(=O)CSc1nc2ccccc2c(=O)n1N | > 100 | > 100 | > 100 µM | > 100 | > 100 | > 100 | > 100 µM | > 100 | > 100 | – | – | – | – | – | – | – | – | – | –
Cn1c2c(c3c(=O)[nH]ncc31)Cc1ccccc1-2 | 45.1 | 54.3 | – | 34.7 | > 100 | 35.1 | 60.1 µM | > 100 | 32.4 | > 100 | – | – | – | – | – | – | – | – | –
NC1CCC2(O)c3ccccc3C2C1 (configuration not stated) | > 100 | > 100 | > 100 µM | > 100 | > 100 | – | > 100 µM | > 100 | > 100 | > 100 | – | – | – | – | – | – | – | – | –
Cc1ccc(S(=O)(=O)NC(=O)Nc2ccc(C(=O)O)cc2)cc1 | > 100 | > 100 | > 100 µM | > 100 | > 100 | – | > 100 µM | > 100 | > 100 | > 100 | – | – | – | – | – | – | – | – | –
O=c1[nH]ncc2[nH]c3c(c12)CCc1ccccc1-3 | > 100 | 30.3 | – | > 100 | > 100 | > 100 | > 100 µM | > 100 | 42 | > 100 | – | – | – | – | – | – | – | – | –
COC(=O)[C@H](C)NC(=O)[C@H](NS(=O)(=O)c1nc2ccccc2s1)c1ccccc1 | 35.8 | 25.9 | 28.3 µM | > 100 | – | > 100 | 31.9 µM | > 100 | 34.8 | > 100 | – | – | – | – | – | – | – | – | –
CC1=NC(=N)N=C(C)C1N=Nc1ccc2nc(C)[nH]c2c1 (configuration not stated) | – | > 100 | > 100 µM | > 100 | > 100 | > 100 | > 100 µM | > 100 | > 100 | > 100 | – | – | – | – | – | – | – | – | –
CN1C(c2ccccc2)CC(O)CC1c1ccccc1 (configuration not stated) | > 100 | > 100 | > 100 µM | > 100 | > 100 | – | > 100 µM | > 100 | > 100 | > 100 | – | – | – | – | – | – | – | – | –
COC(=O)c1c(O)ccc2c1c1c(n2Cc2ccc(OC)cc2)C(=O)c2ccccc2C1 | > 100 | 34.4 | > 100 µM | – | > 100 | > 100 | > 100 µM | > 100 | 79.9 | > 100 | – | – | – | – | – | – | – | – | –
COc1c(OC2OC(CO)C(O)C(O)C2O)cc2c(c1OC)-c1ccc(OC)c(=O)cc1C(NC(C)=O)CC2 (configuration not stated) | > 100 | > 100 | > 100 µM | > 100 | > 100 | – | > 100 µM | > 100 | > 100 | > 100 | – | – | – | – | – | – | – | – | –
O=C(O)C1CCC(=O)N1C(=O)COc1cc(Cl)c(Cl)cc1Cl (configuration not stated) | > 100 | > 100 | > 100 µM | > 100 | > 100 | – | > 100 µM | > 100 | – | > 100 | – | – | – | – | – | – | – | – | –
COC(=O)C(Cc1ccccc1)NC(=O)C(CNC(=O)OCc1ccccc1)C(=O)OCc1ccccc1 (configuration not stated) | > 100 | > 100 | > 100 µM and 85.8 µM | – | – | > 100 | > 100 µM and 41.7 µM | – | 34.1 | > 100 | 52.2 µM and 22.1 µM | > 100 µM and 44.5 µM | > 100 µM and 20.8 µM | – | – | – | – | – | –
[C-]#[O+].[Cl][Sn]([Cl])[Cl].[Cl][Sn]([Cl])[Cl].[Pt].c1cnc2c(c1)ccc1cccnc12 | > 33.8 | > 100 | > 22.4 µM | – | > 100 | – | 46.9 µM | > 27.4 | – | 27.8 | – | – | – | – | – | – | – | – | –
Cc1cccc2c1nc1n2C(=O)c2ccccc2-1 | > 100 | > 100 | > 100 µM | > 100 | > 100 | – | > 100 µM | > 100 | > 100 | > 100 | – | – | – | – | – | – | – | – | –
O=C(Nc1ccc(-n2cc(-c3ccncc3)c(-c3ccc(O)c(Cl)c3)n2)cc1)Nc1cc(C(F)(F)F)cc(C(F)(F)F)c1 | 12.6 | 7.83 | 10.6 µM | 11.7 | 15.5 | 12.8 | 16.5 µM | 10.7 | 6.9 | – | 3.02 µM | 3.37 µM | 4.48 µM | 1.94 | 2.62 | 3.24 | 4.06 | 2.92 | 2.54
BrC1(c2ccccc2)C[n+]2c(-c3ccccc3)cc(-c3ccccc3)cc2-c2ccccc21 (configuration not stated) | 3.31 | 0.318 | – | 14 | 9.77 | 0.538 | 21.2 µM | 28 | 0.635 | – | – | – | – | – | – | – | – | – | –
CC(C)(C)C(=O)c1c(O)c2ccccc2c2ccccc2c1=O | > 100 | > 100 | > 100 µM | > 100 | > 100 | > 100 | > 100 µM | > 100 | – | > 100 | – | – | – | – | – | – | – | – | –
O=C(O)CCCc1ccc2c(c1)C(C(=O)O)CC2 (configuration not stated) | > 100 | > 100 | > 100 µM | > 100 | > 100 | – | > 100 µM | > 100 | > 100 | > 100 | – | – | – | – | – | – | – | – | –
CC1CC(c2ccccc2)=Nc2ccccc2S1 (configuration not stated) | > 100 | > 100 | > 100 µM | > 100 | > 100 | – | > 100 µM | > 100 | > 100 | > 100 | – | – | – | – | – | – | – | – | –
COc1cc(C2c3cc4c(cc3[C@@H](Nc3ccc(F)cc3)C3COC[C@H]23)OCO4)cc(OC)c1O (some centres not stated) | 4.57 | > 25 | – | 6.21 | 10.6 | > 25 | > 25 µM | > 25 | – | > 25 | – | – | – | – | – | – | – | – | –
COC(=O)Nc1cc(OCCCOC(C)=O)c2[nH]c(C(=O)OC)cc2c1C[C@H](O)CO | > 100 | > 100 | > 100 µM | > 100 | > 100 | > 100 | > 100 µM | > 100 | – | > 100 | – | – | – | – | – | – | – | – | –
O=C(/C=C\c1ccccc1)Oc1ccc(/C=C2\CCC/C(=C\c3ccc(OC(=O)/C=C\c4ccccc4)cc3)C2=O)cc1 | > 100 | > 100 | > 100 µM | > 100 | > 100 | > 100 | > 100 µM | > 100 | – | – | – | – | – | – | – | – | – | – | –
